{"source": "patent US20240366495A1", "about": "“COMPOSITION FOR AMELIORATING WRINKLES USING FERMENTED EXTRACT OF CANNABIS STEM AND PREPARATION METHOD THEREOF” (KOREA INSTITUTE OF SCIENCE AND TECHNOLOGY, priority 2023, published 2024)", "key": {"[1]": {"test_system": "HDFs", "assay": "Observation of cell morphology changes after UVB irradiation", "assay_type": "cell-based, human", "conditions": "highest non-cytotoxic concentration, UVB 25 mJ/cm^2 after 2 hours, cultured 24 hours, FIG. 3", "description": "An experiment for confirming an anti-wrinkle effect was conducted on each sample confirmed in Example 1."}, "[2]": {"test_system": "human dermal fibroblasts (HDFs)", "conditions": "sample 0 to 1000 μg/mL, 24 hours, MTT, FIG. 1 / FIG. 2", "description": "First, the cytotoxicity of each sample was confirmed using the following method. After human dermal fibroblasts (HDFs) were cultured in a 96-well culture plate at a concentration of 1.5×10^4 cells/well for 24 hours to reach a clustering coefficient of 70 to 80%, and then the sample prepared in Example 1 was treated at a concentration of 0 to 1000 μg/mL, and cultured in an incubator (37° C., 5% CO2) for an additional 24 hours. […] The absorbance of each well was measured at 570 nm using a microplate reader."}}}
{"smiles": "O=C1O[C@H]([C@@H](O)CO)C(O)=C1O", "note": "[vitamin C]", "values": [{"measurement": "number of cells after UVB irradiation", "setting": "[1]", "value": "number of cells increased to the level of the untreated group"}, {"measurement": "concentration at which cytotoxicity is exhibited", "setting": "[2]", "value": "≥ 500", "unit": "µg/mL"}]}
